Key:
[1] = Binding of gacyclidine by PLGA nanoparticles (gacyclidine in suspension by HPLC); format: physicochemical
Description: Water (pH 7.2) was mixed with acetone solutions containing 2 grams/liter 5050 DLG 3E (PLGA, Lakeshore Biomaterials, solution A) or a solution of 2 grams/liter 5050 DLG 3E and 2 grams/liter gacyclidine base (solution B) or a solution of 2 grams/liter gacyclidine base (solution C). Rapid mixing was accomplished by pumping water into a T-mixer at 5 milliliters/minute and solution A, B, or C into the same T-mixer at 1 milliliter/minute.
Acetone was eliminated from the suspension of particles prepared by mixing water with solution B by stirring the suspension in an open beaker for three days. The particle suspension was then passed through a 0.2 micrometer polyethersulfone syringe filter (VWR International) to eliminate larger particles. […] These nanoparticles were then concentrated by pressure dialysis with a 10,000 MWCO cellulose membrane (Amicon) to a final volume of 17 milliliters. The average particle diameter in the concentrated suspension was determined to be 53 nanometers by dynamic light scattering.
To determine the gacyclidine concentration in the nanoparticle suspension, an aliquot (20 to 50 microliters) was diluted with 10 millimolar hydrochloric acid to a final volume of 1.8 milliliter and then analyzed by high-performance liquid chromatography. Gacyclidine in the concentrated suspension was determined to be 0.68 millimolar (0.18 grams/liter; 3.1 milligrams gacyclidine base; 8% of the initial gacyclidine). When this suspension was passed through a 0.2 micrometer polyethersulfone syringe filter (VWR International) it further reduced the concentration of gacyclidine to 0.23 millimolar (0.06 grams/liter; 1.0 milligrams gacyclidine base; 2.5% of the initial gacyclidine). […] After filtration of the pH 9.1 nanoparticle suspension through a 0.2 micrometer polyethersulfone syringe filter (VWR International) the concentration of particles was not reduced, based on light scattering intensity, nor was the average diameter of particles (58 nanometers, post-filtration) substantially altered. However, the concentration of gacyclidine present in the nanoparticle suspension, after adjusting the pH to 9.1 and passage through a 0.2 micrometer filter, was reduced to approximately 0.02 millimolar (0.005 grams/liter; 0.09 milligrams gacyclidine base; 0.2% of the initial gacyclidine). […] Very little of the gacyclidine in the initial nanoparticle preparation was bound to the PLGA nanoparticles, but was instead dissolved in the aqueous phase surrounding the particles.

[2] = Solubility of gacyclidine base in squalene; format: physicochemical
Protocol: Squalene was added to 1 gram of gacyclidine free base in 1 milliliter aliquots until the gacyclidine base went into solution. The minimum amount of squalene required to dissolve 1 gram of gacyclidine base was 9 milliliters. A suspension of gacyclidine-containing squalene was prepared by adding 4.3 milliliters of the gacyclidine solution in squalene (1 gram gacyclidine base dissolved in 9 milliliters squalene), 0.5 milliliters of polysorbate 80, 0.5 milliliters of sorbitan trioleate, 35 milligrams of dipotassium phosphate, 1 milligram of citric acid, and 877 milligrams of sodium chloride to a graduated cylinder and bringing the mixture to a final volume of 100 milliliters with water. The suspension of squalene-gacyclidine in phosphate buffered saline was passed through a Microfluidics M-110S high pressure homogenizer equipped with a G10Z 87 micrometer ceramic interaction chamber at 23,000 pounds per square inch. After 7 passes through the homogenizer with the interaction chamber maintained in an ice bath, the average particle diameter of the squalene-gacyclidine emulsion was determined to be 135 nanometers by use of a Horiba LB-550 dynamic light scattering particle size analyzer. After 7 additional passes of the emulsion through the homogenizer with the interaction chamber maintained in an ice bath, the average particle diameter was determined to be 122 nanometers. After 7 additional passes of the emulsion through the homogenizer with the interaction chamber maintained in an ice bath, the average particle diameter was determined to be 114 nanometers. After 7 additional passes of the emulsion through the homogenizer with the interaction chamber maintained in an ice bath, the average particle diameter was determined to be 112 nanometers. Extensive analysis of the squalene-gacyclidine emulsion determined that the average particle diameter was between 107 to 123 nanometers. The pH and osmolality of the squalene-gacyclidine emulsion were determined to be 7.6 and 279 milliosmolal, respectively.

[3] = concentrated PLGA suspension passed through 0.2 micrometer polyethersulfone syringe filter
[4] = pH 9.1, passage through 0.2 micrometer filter

| Structure (SMILES) | % of the initial gacyclidine in the concentrated suspension ([1]; PLGA+gacyclidine nanoparticles after 0.2 micrometer filtration and pressure dialysis concentration) | Gacyclidine in the concentrated suspension ([1]; PLGA+gacyclidine nanoparticles after 0.2 micrometer filtration and pressure dialysis concentration, HPLC) | affinity for PLGA ([1]; based on final amount of gacyclidine remaining associated with PLGA nanoparticles) | % of the initial gacyclidine after passing concentrated suspension through 0.2 micrometer filter [1, 3] | concentration of gacyclidine after passing concentrated suspension through 0.2 micrometer filter [1, 3] | % of the initial gacyclidine after adjusting pH to 9.1 and filtration [1, 4] | concentration of gacyclidine in the nanoparticle suspension after adjusting pH to 9.1 and filtration [1, 4] | limit of solubility in the squalene phase [2] | minimum amount of squalene required to dissolve 1 gram of gacyclidine base ([2]; squalene added in 1 milliliter aliquots) |
| --- | --- | --- | --- | --- | --- | --- | --- | --- | --- |
| CC1CCCCC1(c1cccs1)N1CCCCC1 (stereo not shown) [gacyclidine] | 8% | 0.68 millimolar | does not have a high affinity for PLGA | 2.5% | 0.23 millimolar | 0.2% | approximately 0.02 millimolar | 1 gram of gacyclidine for every 9 milliliters of squalene | 9 milliliters |
| CNC1(c2ccccc2Cl)CCCCC1=O (stereo not shown) [ketamine] |  |  |  |  |  |  |  | similar |  |
